Laboratory results reported in PMC7150870 (Toxins, 2020).
Where two headings read alike, the source gives them in different places. Marks after values point to notes of the source that are not given here.

Tests used:
HEK293T cells = type: cell-based, human
HEK 293T cells [1] = type: cell-based, human
HEK 293T cells [2] = system: HEK 293T cells
TNF-α = details: cited from earlier work
human fibroblasts = details: 50 µM for 24 h; cited from earlier work
hepatocyte cells = details: cited from earlier work
[3] = 5.2–15.5 mM; cited from earlier work
RAW 264.7 = type: cell-based, mouse
Caco-2 = type: cell-based, human
HepG2 = type: cell-based, human
HEK293T [4] = type: cell-based, human
[5] = system: HepG2, Caco-2, RAW 264.7, and HEK 293T cells; details: read-out: IC50 range in studied cells
P-gp [6] = molecular target: T1, P-gp (Homo sapiens, UniProt P08183)
various mammalian cells = details: cited from earlier work
P-gp [7] = molecular target: T1, P-gp; details: cited from earlier work
epithelial cell layers = details: cited from earlier work
HEK293T [8] = type: cell-based, human; remark: listed apart in the source
cells = details: cited from earlier work
in vitro = details: human (HepG2, Caco-2, HEK 293T); mouse (RAW 264.7)
HEK293 cells = details: for 2 h; cited from earlier work
[9] = human (Caco-2), mouse (RAW 264.7)

T1 sequence (P08183 whole entry, looked up): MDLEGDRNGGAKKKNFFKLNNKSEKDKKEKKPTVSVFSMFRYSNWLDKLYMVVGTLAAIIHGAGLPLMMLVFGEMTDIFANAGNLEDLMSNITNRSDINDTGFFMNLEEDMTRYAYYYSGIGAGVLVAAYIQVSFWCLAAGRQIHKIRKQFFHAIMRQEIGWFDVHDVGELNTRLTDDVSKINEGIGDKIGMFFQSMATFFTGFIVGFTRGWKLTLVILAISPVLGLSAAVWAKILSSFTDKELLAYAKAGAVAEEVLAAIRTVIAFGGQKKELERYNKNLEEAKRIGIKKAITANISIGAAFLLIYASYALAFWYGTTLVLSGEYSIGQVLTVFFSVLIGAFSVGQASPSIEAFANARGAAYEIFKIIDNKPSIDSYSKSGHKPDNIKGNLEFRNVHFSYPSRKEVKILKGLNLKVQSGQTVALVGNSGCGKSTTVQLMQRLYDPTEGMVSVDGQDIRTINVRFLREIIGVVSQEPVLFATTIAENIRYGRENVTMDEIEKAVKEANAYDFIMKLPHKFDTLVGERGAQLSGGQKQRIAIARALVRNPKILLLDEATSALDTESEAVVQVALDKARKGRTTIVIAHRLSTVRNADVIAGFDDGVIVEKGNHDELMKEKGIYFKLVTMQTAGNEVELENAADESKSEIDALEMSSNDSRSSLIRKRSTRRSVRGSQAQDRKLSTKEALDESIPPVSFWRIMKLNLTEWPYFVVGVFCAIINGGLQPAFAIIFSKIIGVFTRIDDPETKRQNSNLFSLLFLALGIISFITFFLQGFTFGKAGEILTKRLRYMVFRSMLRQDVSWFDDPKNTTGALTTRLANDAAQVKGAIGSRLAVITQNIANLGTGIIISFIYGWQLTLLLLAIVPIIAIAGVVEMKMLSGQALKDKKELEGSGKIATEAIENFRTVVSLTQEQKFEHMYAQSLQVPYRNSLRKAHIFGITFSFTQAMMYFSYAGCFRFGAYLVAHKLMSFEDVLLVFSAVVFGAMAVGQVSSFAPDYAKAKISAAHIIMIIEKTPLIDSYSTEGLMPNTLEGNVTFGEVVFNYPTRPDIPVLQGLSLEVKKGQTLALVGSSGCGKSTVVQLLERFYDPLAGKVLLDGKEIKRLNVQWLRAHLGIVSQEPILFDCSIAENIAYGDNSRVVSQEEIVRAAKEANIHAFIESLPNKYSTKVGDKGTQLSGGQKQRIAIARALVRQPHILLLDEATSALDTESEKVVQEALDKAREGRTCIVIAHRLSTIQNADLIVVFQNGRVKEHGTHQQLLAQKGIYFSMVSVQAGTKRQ

## COc1cc(C2Oc3cc([C@H]4Oc5cc(O)cc(O)c5C(=O)[C@@H]4O)ccc3OC2CO)ccc1O (some centres unmarked) [Silibinin, silibinin, reference compound]
HEK293T cells
  reduction of cell viability by sole silibinin treatment: 45%
HEK 293T cells [1]
  decrease of cell viability compared to cells cultured with a single mycotoxin: about 30%
HEK 293T cells [2]
  percentage of DNA in comet tail with respect to the negative control: did not induce genotoxic effects
Caco-2 cells
  metabolites found by non-target U-HPLC-MS analysis: sulfate derivative
Caco-2 cells; [9]
  transepithelial transport, Apical Medium: 44.34 ± 1.96^cd %
  transepithelial transport, Basolateral Medium: 23.24 ± 1.79^de %
  transepithelial transport, Caco-2 Cells: 0.00 ± 0.00^a %
  transepithelial transport, Raw 264.7 Cells: 0.00 ± 0.00^a %
  transepithelial transport, Total: 67.58 ± 2.95^cd %
TNF-α
  OTA-induced TNF-α level reduced to: 70%
  doses completely blocking OTA-induced TNF-α: 1 to 26 µM
Human fibroblasts
  cytotoxic effect: no significant cytotoxic effect
Hepatocyte cells
  effect against OTA cytotoxicity: protective effect
[3]
  amount of DNA in the comet tail compared to positive control: reduced the amount of DNA in the comet tail

## CC(=O)OC[C@]12C[C@H](OC(=O)CC(C)C)C(C)=C[C@H]1O[C@@H]1[C@H](O)[C@@H](OC(C)=O)[C@@]2(C)[C@]12CO2 [T-2, T-2 toxin]
RAW 264.7
  IC50: 3.57 ± 0.27 nM
Caco-2
  IC50: 13.4 ± 1.07 nM
HepG2
  IC50: 11.4 ± 0.37 nM
HEK293T [4]
  IC50: 3.87 ± 0.27 nM
HEK293T cells; read-out: IC50 halving the HEK293T cells viability
  IC50: 7 nM
HEK 293T cells [1]
  combination index, silibinin 3.4 µM: 0.99 ± 0.02 Add
  combination index, silibinin 6.8 µM: 1.46 ± 0.14 Ant
  combination index, silibinin 13.6 µM: 1.82 ± 0.06 Ant
  combination index, silibinin 27.3 µM: 1.41 ± 0.11 Ant
  combination index, silibinin 54.5 µM: 0.91 ± 0.04 Add
  combination index, silibinin 109.00 µM: 1.00 ± 0.08 Add
  silibinin pretreatment concentration with the strongest antagonism: 13.6 µM
  type of interaction, silibinin 3.4 µM: 0.99 ± 0.02 Add (key: Syn: Combination index (CI) < 0.9; Add: 0.9 ≤ CI ≤ 1; Ant: CI > 1)
  type of interaction, silibinin 6.8 µM: 1.46 ± 0.14 Ant (key: Syn: Combination index (CI) < 0.9; Add: 0.9 ≤ CI ≤ 1; Ant: CI > 1)
  type of interaction, silibinin 13.6 µM: 1.82 ± 0.06 Ant (key: Syn: Combination index (CI) < 0.9; Add: 0.9 ≤ CI ≤ 1; Ant: CI > 1)
  type of interaction, silibinin 27.3 µM: 1.41 ± 0.11 Ant (key: Syn: Combination index (CI) < 0.9; Add: 0.9 ≤ CI ≤ 1; Ant: CI > 1)
  type of interaction, silibinin 54.5 µM: 0.91 ± 0.04 Add (key: Syn: Combination index (CI) < 0.9; Add: 0.9 ≤ CI ≤ 1; Ant: CI > 1)
  type of interaction, silibinin 109.00 µM: 1.00 ± 0.08 Add (key: Syn: Combination index (CI) < 0.9; Add: 0.9 ≤ CI ≤ 1; Ant: CI > 1)
[5]
  IC50: 3.57 to 13.4 nM
P-gp [6]
  P-gp activation (ATP consumption): activated P-gp in dose-dependent manner
Caco-2 cells
  metabolites found by non-target U-HPLC-MS analysis: 3´-hydroxy, 3-hydroxy-15-deacetyl
  transepithelial transport, Apical Medium: 11.63 ± 0.62^a %
  transepithelial transport, Basolateral Medium: 28.13 ± 0.48^e %
  transepithelial transport, Caco-2 Cells: 0.01 ± 0.00^a %
  transepithelial transport, Raw 264.7 Cells: 0.01 ± 0.00^a %
  transepithelial transport, Total: 39.77 ± 0.98^b %
Various mammalian cells
  IC50: 3 to 500 nM
P-gp [7]
  P-gp substrate: not a substrate of P-gp
Epithelial cell layers
  transport through the epithelial cell layers: ≤ 24%

## C[C@H]1CCCC(=O)CCC/C=C/c2cc(O)cc(O)c2C(=O)O1 [ZEA, zearalenone]
HEK293T [8]
  combination index, mixture of DAS (6.58 nM): 0.85 ± 0.07 Syn
  combination index, mixture of HT-2 (21.22 nM): 0.83 ± 0.03 Syn
  combination index, mixture of T-2 (3.87 nM): 0.92 ± 0.01 Add
  type of interaction, mixture of DAS (6.58 nM): 0.85 ± 0.07 Syn (key: Syn: Combination index (CI) < 0.9; Add: 0.9 ≤ CI ≤ 1; Ant: CI > 1)
  type of interaction, mixture of HT-2 (21.22 nM): 0.83 ± 0.03 Syn (key: Syn: Combination index (CI) < 0.9; Add: 0.9 ≤ CI ≤ 1; Ant: CI > 1)
  type of interaction, mixture of T-2 (3.87 nM): 0.92 ± 0.01 Add (key: Syn: Combination index (CI) < 0.9; Add: 0.9 ≤ CI ≤ 1; Ant: CI > 1)
HEK 293T cells [2]
  percentage of DNA in comet tail with respect to the negative control: no significant DNA damage
P-gp [6]
  P-gp activation (ATP consumption): activated P-gp in dose-dependent manner
Caco-2 cells; [9]
  transepithelial transport, Apical Medium: 32.23 ± 1.71^bc %
  transepithelial transport, Basolateral Medium: 54.24 ± 2.38^gh %
  transepithelial transport, Caco-2 Cells: 0.19 ± 0.01^ab %
  transepithelial transport, Raw 264.7 Cells: 0.05 ± 0.01^a %
  transepithelial transport, Total: 86.70 ± 0.67^de %
cells
  concentration with statistically significant decrease in viability of cells: 25 µM
In vitro
  IC50: > 50 nM
HEK293 cells
  concentration range damaging DNA in a concentration-dependent manner: 2500 to 20000 nM
